# Key:
# [1] = tested on: HT-29 human colon carcinoma cells; test: MTS cell viability assay, HT-29 human colon carcinoma cells; assay type: cell-based; conditions: 4 h compound incubation, read-out: IC50 Values, Cancerous Cells, Colon HT-29
# [2] = tested on: K-562 human leukemia cells; test: MTS cell viability assay, K-562 human leukemia cells; assay type: cell-based; conditions: K562, K-562, 4 h compound incubation, MTS, read-out: IC50 Values, Cancerous Cells, Leukemia K-562
# [3] = tested on: PACA-2 human pancreatic carcinoma cells; test: MTS cell viability assay, PACA-2 human pancreatic carcinoma cells; assay type: cell-based; conditions: PACA-2, 4 h compound incubation, MTS, read-out: IC50 Values, Cancerous Cells, Pancreas PACA-2
# E2F-1 = E2F-1 induction in HT-29 cells; assay type: cell-based, human
# Description: Another effect of the compounds of the present invention is the induction or elevation of activity (e.g. elevation of the level) of one or more checkpoint molecules (i.e., a member of the E2F family of transcription factors). Studies have shown that β-lapachone induces activation of E2F1 checkpoint pathway in nuclei of cancer cells but not in normal cells, resulting in the arrest of cancer cells in G1 and/or S phase. Several compounds of the present invention were effective in activating the E2F1 checkpoint pathway (e.g. elevation of E2F1 levels), thus causing G1 and/or S phase arrest. Furthermore, the compounds of the present invention have no significant toxic effects on normal cells (See. Table 1). The assays of the present invention as shown in Table 1 and methods of measuring induction of E2F1 activity and elevation of E2F1 levels can be carried out following the descriptions found in Li et al., (2003) Proc Natl Acad Sci USA. 100(5): 2674-8 and U.S. Patent Application Publication No. 2002/0169135, both incorporated herein by reference.
# [4] = tested on: DLD-1 human colon carcinoma cells; test: MTS cell viability assay, DLD-1 human colon carcinoma cells; assay type: cell-based; conditions: DLD-1, 4 h compound incubation, MTS, read-out: IC50 Values, Cancerous Cells, Colon DLD-1
# [5] = tested on: A549 human lung carcinoma cells; test: MTS cell viability assay, A549 human lung carcinoma cells; assay type: cell-based; conditions: A549, 4 h compound incubation, MTS, read-out: IC50 Values, Cancerous Cells, Lung A549
# [6] = tested on: DU-145 human prostate carcinoma cells; test: MTS cell viability assay, DU-145 human prostate carcinoma cells; assay type: cell-based; conditions: DU-145, 4 h compound incubation, MTS, read-out: IC50 Values, Cancerous Cells, Prostate DU-145
# [7] = tested on: NCM-460 normal colon epithelial cells; test: MTS cell viability assay, NCM-460 normal colon epithelial cells; assay type: cell-based; conditions: for IC50: Homo sapiens, NCM460, NCM-460, 4 h compound incubation, MTS, read-out: IC50 Values, Normal Cells, Colon NCM-460; for Fold Selectivity (NCM-460/DLD1): ratio of IC50 NCM-460 / DLD1
SMILES,IC50 [1] [µM],IC50 [2] [µM],IC50 [3] [µM],E2F-1 Induction (HT-29) (E2F-1),IC50 [4] [µM],IC50 [5] [µM],IC50 [6] [µM],IC50 [7] [µM],Fold Selectivity (NCM-460/DLD1) [7]
"CC(C)(C)c1ccc(OC[C@H](O)CN2CCC3(CC2)CSC2=C(O3)c3ccccc3C(=O)C2=O)cc1 [Compound 185, 1′-[(2R)-3-(4-tert-butylphenoxy)-2-hydroxypropyl]spiro[naphtho[1,2-b][1,4]oxathiine-2,4′-piperidine]-5,6-dione]",2.47,4.46,1.37,YES,3.38,7.42,1.01,13.7,4.1
"O=C1C(=O)c2ccccc2C2=C1SCC1(CCN(Cc3c(F)cccc3Cl)CC1)O2 [Compound 129, 1′-(2-chloro-6-fluorobenzyl)spiro[naphtho[1,2-b][1,4]oxathiine-2,4′-piperidine]-5,6-dione]",7.05,4.44,4.12,Yes,3.98,66.9,6.75,16.5,4.1
"O=C1C(=O)c2ccccc2C2=C1SCC1(CCN(C(=O)Oc3cccc(C(F)(F)F)c3)CC1)O2 [Compound 96, 3-(trifluoromethyl)phenyl 5,6-dioxo-5,6-dihydro-1′H-spiro[naphtho[1,2-b][1,4]oxathiine-2,4′-piperidine]-1′-carboxylate]",20.5,36.3,26.7,Yes,31.7,> 100,20,100,3.2
"O=C1C(=O)c2ccccc2C2=C1SCC1(CCN(C[C@@H](O)COc3ccc(Cl)cc3)CC1)O2 [Compound 183, 1′-[(2R)-3-(4-chlorophenoxy)-2-hydroxypropyl]spiro[naphtho[1,2-b][1,4]oxathiine-2,4′-piperidine]-5,6-dione]",3.88,2.42,0.7,Yes,1.04,3.1,0.796,10.2,9.8
"O=C1C(=O)c2ccccc2C2=C1SCC1(CCN(C[C@@H](O)COc3ccc(F)cc3)CC1)O2 [Compound 181, 1′-[(2R)-3-(4-fluorophenoxy)-2-hydroxypropyl]spiro[naphtho[1,2-b][1,4]oxathiine-2,4′-piperidine]-5,6-dione]",3.11,1.32,0.909,Yes,0.734,4.93,1.52,4.53,6.2
"O=C1C(=O)c2ccccc2C2=C1SCC1(CCN(C(=O)c3cccc(Cl)c3)CC1)O2 [Compound 55, 1′-(3-chlorobenzoyl)spiro[naphtho[1,2-b][1,4]oxathiine-2,4′-piperidine]-5,6-dione]",5.74,3.93,3.36,Yes,2.1,4.57,3.85,11.2,5.3
"O=C1C(=O)c2ccccc2C2=C1SCC1(CCN(C(=O)c3ccc(Cl)c(Cl)c3)CC1)O2 [Compound 53, 1′-(3,4-dichlorobenzoyl)spiro[naphtho[1,2-b][1,4]oxathiine-2,4′-piperidine]-5,6-dione]",2.21,1.44,1.06,YES,1.42,3.83,1.37,8.52,6.0
"O=C1C(=O)c2ccccc2C2=C1SCC1(CCN(CC(O)Cc3ccccc3)CC1)O2 (stereo not drawn) [Compound 163, 1′-(2-hydroxy-3-phenylpropyl)spiro[naphtho[1,2-b][1,4]oxathiine-2,4′-piperidine]-5,6-dione]",4.48,1,0.764,Yes,0.714,4.31,1.38,2.84,4.0
"O=C1C(=O)c2ccccc2C2=C1SCC1(CCN(C(=O)Oc3ccc(F)cc3)CC1)O2 [Compound 97, 4-fluorophenyl 5,6-dioxo-5,6-dihydro-1′H-spiro[naphtho[1,2-b][1,4]oxathiine-2,4′-piperidine]-1′-carboxylate]",12.6,4.28,4.93,YES,4.39,26,6.59,13.3,3.0
"Cc1ccccc1OCC(O)CN1CCC2(CC1)CSC1=C(O2)c2ccccc2C(=O)C1=O (stereo not drawn) [Compound 173, 1′-[2-hydroxy-3-(2-methylphenoxy)propyl]spiro[naphtho[1,2-b][1,4]oxathiine-2,4′-piperidine]-5,6-dione]",,4.1,1.42,,1.49,7,2.92,10.3,6.9
"Cc1ccc(CN2CCC3(CC2)CSC2=C(O3)c3ccccc3C(=O)C2=O)cc1 [Compound 120, 1′-(4-methylbenzyl)spiro[naphtho[1,2-b][1,4]oxathiine-2,4′-piperidine]-5,6-dione]",,5.47,4.35,,4.23,9.04,9.27,10.4,2.5
"O=C1C(=O)c2ccccc2C2=C1SCC1(CCN(CC(O)CN3CCOCC3)CC1)O2 (stereo not drawn) [Compound 166, 1′-(2-hydroxy-3-morpholin-4-ylpropyl)spiro[naphtho[1,2-b][1,4]oxathiine-2,4′-piperidine]-5,6-dione]",,2.26,1.47,,3.7,13.6,4.16,8.69,2.3
"Cn1cnc(S(=O)(=O)N2CCC3(CC2)CSC2=C(O3)c3ccccc3C(=O)C2=O)c1 [Compound 79, 1′-[(1-methyl-1H-imidazol-4-yl)sulfonyl]spiro[naphtho[1,2-b][1,4]oxathiine-2,4′-piperidine]-5,6-dione]",,5.92,7.26,,8.26,23.5,11.9,20.5,2.5
"O=C1C(=O)c2ccccc2C2=C1SCC1(CCN(CCOc3ccccc3)CC1)O2 [Compound 140, 1′-(2-phenoxyethyl)spiro[naphtho[1,2-b][1,4]oxathiine-2,4′-piperidine]-5,6-dione]",,4.26,3.93,,3.37,21.5,4.2,12.2,3.6
"O=C1C(=O)c2ccccc2C2=C1SCC1(CCN(C(=O)OCc3ccccc3)CC1)O2 [Compound 98, benzyl 5,6-dioxo-5,6-dihydro-1′H-spiro[naphtho[1,2-b][1,4]oxathiine-2,4′-piperidine]-1′-carboxylate]",,1.43,1.61,,3.11,7.3,3.98,4.78,1.5

# Reference: patent publication US7902354B2, “Lapachone compounds and methods of use thereof” (ArQule, Inc., priority 2006, dated 2011)
